# Assay results published in paper PMC12028158, “Synthesis and In Vitro Evaluation of the Anticancer Effect of Novel Phosphonium Vindoline Derivatives” (International Journal of Molecular Sciences, 2025).
# Assays:
# Type in all cases: cell-based
# IGROV1 [1] = assay: NCI60 five-dose screen; conditions: Homo sapiens, IGROV-1
# BT-549 = assay: NCI60 one-dose screen; conditions: Homo sapiens, BT-549, read-out: Growth percent
# EKVX = assay: NCI60 one-dose screen; conditions: Homo sapiens, read-out: Growth percent
# Colon Cancer panel = assay: NCI60 five-dose screen, panel mean; conditions: Homo sapiens, read-out: GI50 Mean
# SF-295 = assay: NCI60 one-dose screen; conditions: Homo sapiens, SF-295, read-out: Growth percent
# MDA-MB-435 = assay: NCI60 five-dose screen; conditions: Homo sapiens, MDA-MB-435
# OVCAR-3 = assay: NCI60 one-dose screen; conditions: Homo sapiens, OVCAR-3, read-out: Growth percent
# SK-OV-3 = assay: NCI60 five-dose screen; conditions: Homo sapiens, SK-OV-3
# NCI-H522 [2] = assay: NCI60 five-dose screen; conditions: Homo sapiens, NCI-H522
# HT29 = assay: NCI60 five-dose screen; conditions: Homo sapiens, HT-29
# Renal Cancer panel = assay: NCI60 five-dose screen, panel mean; conditions: Homo sapiens, read-out: GI50 Mean
# IGROV1 [3] = assay: NCI60 one-dose screen; conditions: Homo sapiens, IGROV-1, read-out: Growth percent
# HOP-62 = assay: NCI60 five-dose screen; conditions: Homo sapiens, HOP-62
# CNS Cancer panel = assay: NCI60 five-dose screen, panel mean; conditions: Homo sapiens, read-out: GI50 Mean
# LOX IMVI = assay: NCI60 five-dose screen; conditions: Homo sapiens
# T-47D = assay: NCI60 five-dose screen; conditions: Homo sapiens, T47D
# UACC-62 = assay: NCI60 five-dose screen; conditions: Homo sapiens, UACC-62
# DU-145 = assay: NCI60 one-dose screen; conditions: Homo sapiens, DU-145, read-out: Growth percent
# HCC-2998 = assay: NCI60 one-dose screen; conditions: Homo sapiens, HCC 2998, read-out: Growth percent
# SK-MEL-28 = assay: NCI60 one-dose screen; conditions: Homo sapiens, SK-MEL-28, read-out: Growth percent
# M14 = assay: NCI60 one-dose screen; conditions: Homo sapiens, M14, read-out: Growth percent
# OVCAR-8 = assay: NCI60 one-dose screen; conditions: Homo sapiens, OVCAR-8, read-out: Growth percent
# HCT-15 [4] = assay: NCI60 five-dose screen; conditions: Homo sapiens, HCT-15
# NCI/ADR-RES = assay: NCI60 one-dose screen; conditions: Homo sapiens, read-out: Growth percent
# MALME-3M = assay: NCI60 five-dose screen; conditions: Homo sapiens, Malme-3M
# ACHN [5] = assay: NCI60 one-dose screen; conditions: Homo sapiens, read-out: Growth percent
# NCI-H522 [6] = assay: NCI60 one-dose screen; conditions: Homo sapiens, NCI-H522, read-out: Growth percent
# NCI-H322M = assay: NCI60 one-dose screen; conditions: Homo sapiens, read-out: Growth percent
# NCI-H23 = assay: NCI60 one-dose screen; conditions: Homo sapiens, NCI-H23, read-out: Growth percent
# OVCAR-4 [7] = assay: NCI60 five-dose screen; conditions: Homo sapiens, OVCAR-4
# HL-60(TB) = assay: NCI60 one-dose screen; conditions: Homo sapiens, HL-60, read-out: Growth percent
# SW-620 = assay: NCI60 five-dose screen; conditions: Homo sapiens, SW-620
# Ovarian Cancer panel = assay: NCI60 five-dose screen, panel mean; conditions: Homo sapiens, read-out: GI50 Mean
# MOLT-4 = assay: NCI60 five-dose screen; conditions: Homo sapiens, MOLT-4
# OVCAR-5 = assay: NCI60 one-dose screen; conditions: Homo sapiens, OVCAR-5, read-out: Growth percent
# CAKI-1 = assay: NCI60 one-dose screen; conditions: Homo sapiens, CAKI-1, read-out: Growth percent
# HCT-116 [8] = assay: NCI60 five-dose screen; conditions: Homo sapiens, HCT-116
# OVCAR-4 [9] = assay: NCI60 one-dose screen; conditions: Homo sapiens, OVCAR-4, read-out: Growth percent
# HCT-15 [10] = assay: NCI60 one-dose screen; conditions: Homo sapiens, HCT-15, read-out: Growth percent
# [11] = system: 60 human tumor cell lines (NCI60); assay: NCI60 one-dose screen, overall mean; conditions: for activity at 10 µM: Homo sapiens, 60 cell, read-out: Mean growth percent
# HCT-116 [12] = assay: NCI60 one-dose screen; conditions: Homo sapiens, HCT-116, read-out: Growth percent
# Breast Cancer panel = assay: NCI60 five-dose screen, panel mean; conditions: Homo sapiens, read-out: GI50 Mean
# ACHN [13] = assay: NCI60 five-dose screen; conditions: Homo sapiens
# Leukemia panel = assay: NCI60 five-dose screen, panel mean; conditions: Homo sapiens, read-out: GI50 Mean
# SK-MEL-5 = assay: NCI60 five-dose screen; conditions: Homo sapiens, SK-MEL-5
# RXF 393 = assay: NCI60 one-dose screen; conditions: Homo sapiens, RXF 393, read-out: Growth percent
# CCRF-CEM = assay: NCI60 five-dose screen; conditions: Homo sapiens
smiles,measurement,setting,value
CC[C@]12C=CCN3CC[C@@]4(c5ccc(OC)cc5N(C)[C@H]4[C@@](O)(C(=O)OC)[C@@H]1OC(=O)CCCC[P+](c1ccc(OC)cc1)(c1ccc(OC)cc1)c1ccc(OC)cc1)[C@@H]32 [10b],GI50,IGROV1 [1],548 nM
same,activity at 10 µM,BT-549,-96.7%
same,activity at 10 µM,EKVX,-59.7%
same,GI50,Colon Cancer panel,1880 nM
same,activity at 10 µM,SF-295,-93.6%
same,GI50,MDA-MB-435,521 nM
same,activity at 10 µM,OVCAR-3,-71.8%
same,GI50,SK-OV-3,1400 nM
same,GI50,NCI-H522 [2],341 nM
same,GI50,HT29,511 nM
same,GI50,Renal Cancer panel,4340 nM
same,activity at 10 µM,IGROV1 [3],-92%
same,GI50,HOP-62,2420 nM
same,GI50,CNS Cancer panel,1170 nM
same,GI50,LOX IMVI,1110 nM
same,GI50,T-47D,383 nM
same,GI50,UACC-62,963 nM
same,activity at 10 µM,DU-145,-58.2%
same,activity at 10 µM,HCC-2998,-88.4%
same,activity at 10 µM,SK-MEL-28,-96.8%
same,activity at 10 µM,M14,-89.8%
same,activity at 10 µM,OVCAR-8,-90.2%
same,GI50,HCT-15 [4],8790 nM
same,activity at 10 µM,NCI/ADR-RES,84.3%
same,GI50,MALME-3M,1130 nM
same,activity at 10 µM,ACHN [5],-49.2%
same,activity at 10 µM,NCI-H522 [6],-81.9%
same,activity at 10 µM,NCI-H322M,-89.7%
same,activity at 10 µM,NCI-H23,-90.7%
same,GI50,OVCAR-4 [7],1570 nM
same,activity at 10 µM,HL-60(TB),-45.2%
same,GI50,SW-620,1060 nM
same,GI50,Ovarian Cancer panel,4110 nM
same,GI50,MOLT-4,1180 nM
same,activity at 10 µM,OVCAR-5,-98.6%
same,activity at 10 µM,CAKI-1,-78.5%
same,GI50,HCT-116 [8],1300 nM
same,activity at 10 µM,OVCAR-4 [9],-37.7%
same,activity at 10 µM,HCT-15 [10],-5.69%
same,activity at 10 µM,[11],-70.4%
same,average reduction / average cell death,"[11]; one-dose, 10 µM, average over cell lines",more than 70%
same,activity at 10 µM,HCT-116 [12],-94.9%
same,GI50,Breast Cancer panel,700 nM
same,GI50,ACHN [13],6280 nM
same,GI50,Leukemia panel,560 nM
same,GI50,SK-MEL-5,1600 nM
same,activity at 10 µM,RXF 393,-90.4%
"CCC12C=CCN3CC[C@@]4(c5ccc(OC)cc5N(C)[C@H]4[C@@](O)(C(=O)OC)[C@@H]1OC(C)=O)[C@@H]32 (some centres unmarked) [compound 2, vindoline]",activity at 10 µM,BT-549,114%
same,activity at 10 µM,EKVX,102%
same,activity at 10 µM,SF-295,99.5%
same,activity at 10 µM,OVCAR-3,112%
same,activity at 10 µM,IGROV1 [3],98.4%
same,activity at 10 µM,DU-145,107%
same,activity at 10 µM,HCC-2998,118%
same,activity at 10 µM,SK-MEL-28,106%
same,activity at 10 µM,M14,104%
same,activity at 10 µM,OVCAR-8,99.8%
same,activity at 10 µM,NCI/ADR-RES,110%
same,activity at 10 µM,ACHN [5],101%
same,activity at 10 µM,NCI-H522 [6],88.5%
same,activity at 10 µM,NCI-H322M,97.8%
same,activity at 10 µM,NCI-H23,103%
same,activity at 10 µM,HL-60(TB),104%
same,activity at 10 µM,OVCAR-5,91.2%
same,activity at 10 µM,CAKI-1,97.5%
same,activity at 10 µM,OVCAR-4 [9],98.8%
same,activity at 10 µM,HCT-15 [10],99%
same,activity at 10 µM,[11],100%
same,activity at 10 µM,HCT-116 [12],104%
same,activity at 10 µM,RXF 393,104%
"CC[C@]12C=CCN3CC[C@@]4(c5ccc(OC)cc5N(C)[C@H]4[C@@](O)(C(=O)OC)[C@@H]1OC(=O)CCCC[P+](c1ccccc1)(c1ccccc1)c1ccccc1)[C@@H]32 [compound 4, reference compound]",GI50,IGROV1 [1],553 nM
same,activity at 10 µM,BT-549,-1.04%
same,activity at 10 µM,EKVX,56.1%
same,GI50,Colon Cancer panel,3190 nM
same,activity at 10 µM,SF-295,58.1%
same,GI50,MDA-MB-435,357 nM
same,activity at 10 µM,OVCAR-3,-0.29%
same,GI50,SK-OV-3,725 nM
same,GI50,NCI-H522 [2],229 nM
same,GI50,HT29,404 nM
same,GI50,Renal Cancer panel,4870 nM
same,activity at 10 µM,IGROV1 [3],-36.4%
same,GI50,HOP-62,2600 nM
same,GI50,CNS Cancer panel,940 nM
same,GI50,LOX IMVI,1170 nM
same,GI50,T-47D,303 nM
same,GI50,UACC-62,403 nM
same,activity at 10 µM,DU-145,14.7%
same,activity at 10 µM,HCC-2998,15.9%
same,activity at 10 µM,SK-MEL-28,12.5%
same,GI50,CCRF-CEM,697 nM
same,activity at 10 µM,M14,29.4%
same,activity at 10 µM,OVCAR-8,18.6%
same,GI50,HCT-15 [4],18600 nM
same,activity at 10 µM,NCI/ADR-RES,91.6%
same,GI50,MALME-3M,273 nM
same,activity at 10 µM,ACHN [5],93%
same,activity at 10 µM,NCI-H522 [6],-5.5%
same,activity at 10 µM,NCI-H322M,47%
same,activity at 10 µM,NCI-H23,6.4%
same,GI50,OVCAR-4 [7],326 nM
same,activity at 10 µM,HL-60(TB),-63.5%
same,GI50,SW-620,1180 nM
same,GI50,Ovarian Cancer panel,15100 nM
same,activity at 10 µM,OVCAR-5,23.8%
same,activity at 10 µM,CAKI-1,85.9%
same,GI50,HCT-116 [8],1060 nM
same,activity at 10 µM,OVCAR-4 [9],5.22%
same,activity at 10 µM,HCT-15 [10],99.3%
same,activity at 10 µM,[11],11.9%
same,activity at 10 µM,HCT-116 [12],8.03%
same,GI50,Breast Cancer panel,500 nM
same,GI50,ACHN [13],14600 nM
same,GI50,Leukemia panel,600 nM
same,GI50,SK-MEL-5,1710 nM
same,activity at 10 µM,RXF 393,-13.3%
